The values that follow come from patent US20040115739A1, “Method for identifying maxi-k channel blockers for use in lowering elevated intraocular pressure using hek-293 cells” (priority 2003, published 2004).

What all share (assay type): cell-based
For assay [1], the target named is T1, maxi-K channels transiently expressed in TsA-201 cells (Homo sapiens, UniProt Q12791).
T1 construct: expressed in transfected cells; host or cells: TsA-201 cells, transient transfection
The assay is described as follows: VIPR/FRET membrane potential assay, maxi-K channels transiently expressed in TsA-201 cells. The following applies: FIG. 2. From the text: In order to discover novel maxi-K channel blockers, a robust and reliable functional assay is required. High throughput screening assays with ion channels have been developed (see Aurora Biosciences J. E. Gonzalez et al., DDT, 4, 431-439, 1999). For example, transient transfection of maxi-K channel alpha and beta1 subunits into TsA-201 cells leads to the maxi-K channel controlling the membrane potential of those cells, under appropriate experimental conditions. However, transient transfection experiments are limited because, typically, the transfection has to occur for every experiment, the cells are only available for assay twice a week and results can be variable depending on the transfection efficiency. This invention relates to a new functional assay, which utilizes HEK-293 cells, which once transfected remains as such, thereby eliminating the need for further transfection. The claimed method also provides more reliable reading of the maxi-K channel activity.

The subject of assay [2] is endogenous potassium conductances of HEK-293 cells. The assay is described as follows: VIPR/FRET membrane potential assay, high-potassium addition to HEK-293 cells. The note with it: FIG. 1; for effect on fluorescence signal caused by high-potassium addition: untransfected HEK-293 cells, different/increasing concentrations of compound; for efficacy (inhibition of fluorescence signal) in the presence of Compound 1: HEK-293 cells, selective maxi-K channel blocker Compound 1 present. On the procedure: HEK-293 cells were plated on 96-well poly-D-lysine plates and incubated for about 16 to 24 hours at 37° C. The media was aspirated and the cells were washed once with D-PBS. Cells were incubated with 9 μM coumarin (CC2DMPE)-0.02% pluronic-127 in D-PBS for 30 minutes in the dark. Cells were washed twice with D-PBS, and incubated with 4.5 μM oxanol (DiSBAC2(3)) in the absence (Control) or presence of increasing concentrations of test compound, in the dark for 30 minutes. Plates were loaded onto a VIPR instrument and the fluorescence emission of both dyes was recorded for 10 seconds. A solution containing high-potassium was then added and the fluorescence emission of the dyes was recorded for another 10 seconds. The coumarin/oxanol ratio was calculated under both conditions. Before addition of high-potassium, this ratio was always normalized to 1.
The signal is not affected by the presence of different concentrations of the selective maxi-K channel blocker, Compound 1. […] A useful concentration range for these agents is 3-10 μM. Importantly, in the presence of the selective maxi-K channel blocker Compound 1, the efficacy of either Compound A or Compound B is unaffected.

Assay [3] addresses T2, maxi-K channel (alpha and beta 1 subunits) in stably transfected HEK-293 cells (Homo sapiens, UniProt Q12791).
T2 construct: expressed in transfected cells
The experiment in a line: VIPR/FRET membrane potential assay, HEK-293 cells stably transfected with alpha and beta 1 subunits of the maxi-K channel. As to the method:
Transfection of the alpha and betal subunits of the maxi-K channel in HEK-293 cells was carried out as follows: HEK-293 cells were plated in 100 mm tissue culture treated dishes at a density of 3×10^6 cells per dish, and a total of five dishes were prepared. Cells were grown in a medium consisting of Dulbecco's Modified Eagle Medium (DMEM) supplemented with 10% Fetal Bovine serum, 1× L-Glutamine, and 1× Penicillin/Streptomycin, at 37° C., 10% CO2. For transfection with Maxi-K hα (pCIneo) and Maxi-K hβ1 (pIRESpuro) DNAs, 150 μl FuGENE6™ was added dropwise into 10 ml of serum free/phenol-red free DMEM and allowed to incubate at room temperature for 5 minutes. Then, the FuGENE6™ solution was added dropwise to a DNA solution containing 25 μg of each plasmid DNA, and incubated at room temperature for 30 minutes. After the incubation period, 2 ml of the FuGENE6™/DNA solution was added dropwise to each plate of cells and the cells were allowed to grow two days under the same conditions as described above. At the end of the second day, cells were put under selection media which consisted of DMEM supplemented with both 600 μg/ml G418 and 0.75 μg/ml puromycin. Cells were grown until separate colonies were formed. Five colonies were collected and transferred to a 6 well tissue culture treated dish. A total of 75 colonies were collected. Cells were allowed to grow until a confluent monolayer was obtained. Cells were then tested for the presence of maxi-K channel alpha and beta1 subunits using an assay that monitors binding of ^125I-iberiotoxin-D19Y/Y36F to the channel. Cells expressing ^125I-iberiotoxin-D19Y/Y36F binding activity were then evaluated in a functional assay that monitors the capability of maxi-K channels to control the membrane potential of transfected HEK-293 cells using fluorescence resonance energy transfer (FRET) ABS technology with a VIPR instrument. The colony giving the largest signal to noise ratio was subjected to limiting dilution. For this, cells were resuspended at approximately 5 cells/ml, and 200 μl were plated in individual wells in a 96 well tissue culture treated plate, to add ca. one cell per well. A total of two 96 well plates were made. When a confluent monolayer was formed, the cells were transferred to 6 well tissue culture treated plates. A total of 62 wells were transferred. When a confluent monolayer was obtained, cells were tested using the FRET-functional assay. […]
The plates are loaded into a voltage/ion probe reader (VIPR) instrument, and the fluorescence emission of both CC2DMPE and DiSBAC2(3) are recorded for 10 sec. At this point, 100 μl of high-potassium solution (mM): 140 KCl, 2 CaCl2, 1 MgCl2, 20 Hepes-KOH, pH 7.4, 10 glucose are added and the fluorescence emission of both dyes recorded for an additional 10 sec. […]

T1 sequence (Q12791 whole entry): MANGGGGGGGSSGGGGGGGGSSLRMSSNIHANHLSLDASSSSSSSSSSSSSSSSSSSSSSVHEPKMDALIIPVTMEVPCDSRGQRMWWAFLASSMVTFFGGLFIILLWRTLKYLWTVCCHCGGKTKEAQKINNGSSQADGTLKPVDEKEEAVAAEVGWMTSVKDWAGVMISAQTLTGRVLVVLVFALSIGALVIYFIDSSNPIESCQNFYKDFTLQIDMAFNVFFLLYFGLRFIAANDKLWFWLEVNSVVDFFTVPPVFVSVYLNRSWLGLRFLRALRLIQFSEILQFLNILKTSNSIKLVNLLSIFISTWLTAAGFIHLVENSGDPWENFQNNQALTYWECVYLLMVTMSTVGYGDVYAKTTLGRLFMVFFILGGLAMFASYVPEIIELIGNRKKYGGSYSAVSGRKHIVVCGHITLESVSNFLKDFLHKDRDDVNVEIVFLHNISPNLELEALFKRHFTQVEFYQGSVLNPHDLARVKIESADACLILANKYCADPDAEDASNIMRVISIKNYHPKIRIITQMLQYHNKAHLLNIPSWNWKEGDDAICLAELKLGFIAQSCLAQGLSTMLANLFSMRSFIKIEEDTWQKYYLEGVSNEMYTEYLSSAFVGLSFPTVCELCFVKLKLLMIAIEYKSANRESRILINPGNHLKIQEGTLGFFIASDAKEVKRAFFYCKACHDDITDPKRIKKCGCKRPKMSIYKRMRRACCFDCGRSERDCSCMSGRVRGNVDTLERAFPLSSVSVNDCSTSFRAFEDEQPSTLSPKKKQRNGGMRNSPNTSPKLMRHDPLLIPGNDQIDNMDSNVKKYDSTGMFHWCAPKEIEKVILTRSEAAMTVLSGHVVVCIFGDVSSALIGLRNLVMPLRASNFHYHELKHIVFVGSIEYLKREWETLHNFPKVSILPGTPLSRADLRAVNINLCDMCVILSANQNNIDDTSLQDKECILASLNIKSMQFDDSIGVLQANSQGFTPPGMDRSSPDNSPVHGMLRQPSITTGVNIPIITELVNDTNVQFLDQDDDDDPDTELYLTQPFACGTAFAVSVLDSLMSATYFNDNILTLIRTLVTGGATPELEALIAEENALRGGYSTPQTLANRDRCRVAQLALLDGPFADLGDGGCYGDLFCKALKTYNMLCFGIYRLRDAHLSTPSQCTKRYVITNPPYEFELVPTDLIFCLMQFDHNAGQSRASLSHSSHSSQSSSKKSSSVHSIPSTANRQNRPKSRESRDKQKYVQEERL
T1 sequence (Q16558 whole entry partner): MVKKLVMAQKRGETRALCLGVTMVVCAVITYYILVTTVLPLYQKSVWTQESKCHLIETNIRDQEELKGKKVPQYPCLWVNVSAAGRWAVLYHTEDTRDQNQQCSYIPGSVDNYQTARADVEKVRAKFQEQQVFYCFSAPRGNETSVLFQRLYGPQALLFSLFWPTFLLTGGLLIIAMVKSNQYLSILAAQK
T2 sequence (Q12791 whole entry): as the sequence (Q12791 whole entry) above
T2 sequence (Q16558 whole entry partner): as the sequence (Q16558 whole entry partner) above

Regarding `CC(=O)SCC(Cc1ccccc1)C(=O)NC(Cc1ccccc1)C(=O)NCCc1ccccc1` (stereo not drawn) [Compound 1], the “inhibition of control signal” value in assay [1] (3 μM compound) is “completely inhibits the control signal”. The “effect on fluorescence signal caused by high-potassium addition” value (shortened to “effect on fluorescence signal caused”) in assay [2] is reported as “not affected”. In assay [3] (3 μM Compound A present in all wells, FIG. 4), the “inhibition of control signal with increasing concentrations” value is recorded as “concentration-dependent inhibition of the control signal”. In assay [3] (compound alone, no blocker of endogenous conductances, FIG. 3), the “block of signal generated by addition of high-potassium solution” value was “only partially blocks the signal”. Also, in assay [3] (in the presence of potassium channel blocker Compound A, FIG. 3), the “inhibition of signal generated by addition of high-potassium solution” value is given as “complete inhibition of the signal”.
Regarding `CCCNC(=O)OC1CCC(CNC(=O)c2ccccc2OC)(c2ccccc2)CC1` (stereo not drawn) [Compound A], in assay [1], the “effect on maxi-K channel activity” value is recorded as “neither Compound A, nor Compound B have any effect on maxi-K channel activity”. Also, in assay [2], the “efficacy (inhibition of fluorescence signal) in the presence of Compound 1” value was “unaffected” and the “effect on fluorescence signal caused” value is on record as “concentration-dependent inhibition of the fluorescence signal”. For the same molecule, the “effect on the magnitude of the signal caused by addition of high-potassium solution” value in assay [3] (stably transfected HEK-293 cells, FIG. 3) is recorded as “no significant effect”.
For `COc1ccccc1C(=O)NCC1(c2ccccc2)CCC(=O)CC1` [Compound B], in assay [1], the “effect on maxi-K channel activity” value is on record as “neither Compound A, nor Compound B have any effect on maxi-K channel activity”. In assay [2], the “efficacy (inhibition of fluorescence signal) in the presence of Compound 1” value is “unaffected” and the “effect on fluorescence signal caused” value is recorded as “concentration-dependent inhibition of the fluorescence signal”.
